According to patent US20060078874A1, “Use of nuclear hormone receptors” (Novo Nordisk A/S, priority 2002, published 2006):

Assays:
[1] = test system: naked oocytes (NO); assay: Agonistic oocyte assay, naked oocytes (NO / NkO test); format: cell-based, mouse; settings: for % GVBD + PB: NkO test
Experimental: (§1) An Agonistic Oocyte Assay Can be Performed as Follows: Oocytes were obtained from immature female mice (C57BL/6J×DBA/2J F1-hybrid, Bomholtgaard, Denmark) weighing 13-16 grams, that were kept under controlled temperature (20-22° C.), light (lights on 06.00-18.00) and relative humidity (50-70%). The mice received an intra-peritoneal injection of 0.2 ml gonadotropins (Gonal-F, Serono) containing 20 IU FSH and 48 hours later the animals were killed by cervical dislocation. The ovaries were dissected out and the oocytes were isolated in Hx-medium (see below) under a stereo microscope by manual rupture of the follicles using a pair of 27 gauge needles. Spherical oocytes displaying an intact germinal vesicle (hereinafter designated GV) were divided in cumulus enclosed oocytes (hereinafter designated CEO) and naked oocytes (hereinafter designated NO) and placed in α-minimum essential medium (α-MEM without ribonucleosides, Gibco BRL, Cat. No. 22561) supplemented with 3 mg/ml bovine serum albumin (BSA, Sigma Cat. No. A-7030), 5 mg/ml human serum albumin (HSA, Statens Seruminstitute, Denmark), 0.23 mM pyruvate (Sigma, Cat. No S-8636), 2 mM glutamine (Flow Cat. No. 16-801), 100 IU/ml penicillin and 100 μg/ml streptomycin (Flow, Cat No. 16-700). This medium was supplemented with 3 mM hypoxanthine (Sigma Cat. No. H-9377) and designated Hx-medium. The oocytes were rinsed three times in Hx-medium and oocytes of uniform size were divided into groups of CEO and NO. CEO and NO were cultured in 4-well multidishes (Nunclon, Denmark) in which each well contained 0.4 ml of Hx-medium. One control well (i.e., 35-45 oocytes cultured in identical medium with no addition of test compound) was always cultured simultaneously with 3 test wells (35-45 oocytes per well supplemented with test compound). The oocytes were cultured in a humidified atmosphere of 5% CO2 in air for 24 hours at 37° C. By the end of the culture period, the number of oocytes with germinal vesicle (hereinafter designated GV), GVBD, and polar body (herein designated PB), respectively, were counted using a stereomicroscope ([…] MZ 12). The percentage GVBD, defined as percentage of oocytes undergoing GVBD per total number of oocytes in that well, was calculated as: % GVBD=100×(number of GVBD+number of PB)/(total number oocytes). The % PB was defined as percentage of oocytes displaying one extruded polar body per total number of oocytes in that well. […] The relative effect of the tested compound is calculated as follows: Relative effect=100×((test GVBD %-negative control GVBD %)/(FF-MAS GVBD %-negative control GVBD %)).

[2] = test system: cumulus enclosed oocytes (CEO); assay: Oocyte maturation assay, cumulus enclosed oocytes (CEO test); format: cell-based, mouse
Experimental: as §1

[3] = biological target: T1, LXRα (Homo sapiens, UniProt Q13133); assay: Recruitment of co-factors to LXRα (HTRF assay); format: biochemical
T1 sequence (Q13133 1-447): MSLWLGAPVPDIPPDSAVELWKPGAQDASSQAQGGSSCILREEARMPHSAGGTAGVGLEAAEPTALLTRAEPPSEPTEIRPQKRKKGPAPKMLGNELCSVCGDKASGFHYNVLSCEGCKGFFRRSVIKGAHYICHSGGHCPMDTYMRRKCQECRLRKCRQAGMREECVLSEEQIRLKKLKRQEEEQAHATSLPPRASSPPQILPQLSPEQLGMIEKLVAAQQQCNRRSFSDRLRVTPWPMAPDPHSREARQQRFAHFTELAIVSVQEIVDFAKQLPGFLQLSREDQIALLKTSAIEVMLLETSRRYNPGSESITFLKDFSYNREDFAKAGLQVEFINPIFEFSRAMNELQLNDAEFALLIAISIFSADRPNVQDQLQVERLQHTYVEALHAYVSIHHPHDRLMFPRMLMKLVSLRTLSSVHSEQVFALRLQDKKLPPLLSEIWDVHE
Source text: (§2) The HTRF assay is described in Methods 25 (2001), 54-61. (HTRF is an abbreviation for homogeneous time-resolved fluorescence.)
(§3) The EC50 value is the dose which leads to a 50% saturation.

[4] = biological target: T2, LXRβ (Homo sapiens, UniProt P55055); assay: Recruitment of co-factors to LXRβ (HTRF assay); format: biochemical
T2 sequence (P55055 1-460): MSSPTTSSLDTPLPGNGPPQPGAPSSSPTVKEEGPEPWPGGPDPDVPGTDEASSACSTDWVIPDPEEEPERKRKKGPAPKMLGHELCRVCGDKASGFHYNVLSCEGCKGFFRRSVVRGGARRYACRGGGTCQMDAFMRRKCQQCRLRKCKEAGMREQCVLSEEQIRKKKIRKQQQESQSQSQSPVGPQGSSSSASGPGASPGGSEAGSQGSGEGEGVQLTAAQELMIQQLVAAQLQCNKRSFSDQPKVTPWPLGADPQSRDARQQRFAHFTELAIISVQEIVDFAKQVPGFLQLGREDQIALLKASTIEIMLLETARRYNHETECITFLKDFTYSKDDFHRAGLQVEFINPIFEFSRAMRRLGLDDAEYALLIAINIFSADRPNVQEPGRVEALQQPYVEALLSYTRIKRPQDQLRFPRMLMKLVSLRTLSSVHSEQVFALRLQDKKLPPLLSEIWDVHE
Source text: as §2, §3

[5] = biological target: T3, FXRalpha (Homo sapiens, UniProt Q96RI1); assay: FFMAS on human FXRalpha (FIG. 2); format: biochemical
T3 sequence (Q96RI1 1-486): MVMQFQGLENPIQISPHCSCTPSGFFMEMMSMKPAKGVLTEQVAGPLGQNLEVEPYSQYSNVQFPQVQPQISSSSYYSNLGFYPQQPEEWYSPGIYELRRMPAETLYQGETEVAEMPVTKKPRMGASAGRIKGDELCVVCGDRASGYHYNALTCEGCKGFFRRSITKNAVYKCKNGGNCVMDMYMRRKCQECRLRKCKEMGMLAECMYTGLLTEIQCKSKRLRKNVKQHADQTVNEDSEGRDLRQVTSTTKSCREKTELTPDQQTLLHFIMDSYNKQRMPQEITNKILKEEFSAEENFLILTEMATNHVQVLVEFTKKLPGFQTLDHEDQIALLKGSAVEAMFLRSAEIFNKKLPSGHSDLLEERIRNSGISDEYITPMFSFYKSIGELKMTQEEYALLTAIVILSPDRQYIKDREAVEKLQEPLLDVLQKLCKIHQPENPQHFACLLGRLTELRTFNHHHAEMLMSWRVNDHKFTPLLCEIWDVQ

[6] = test system: FXRbeta; assay: FFMAS on mouse FXRbeta (FIG. 3); format: biochemical
[7] = biological target: T1, LXRα; settings: Janowski et al. Nature 383 (1996); no direct binding explored; cited from earlier work
[8] = test system: naked oocytes (NO); settings: Byskov et al. Nature 374 (1995); cited from earlier work
[9] = biological target: T1, LXRα; assay: Agonist activity against LXRα
[10] = biological target: T2, LXRβ; assay: Agonist activity against LXRβ
[11] = biological target: T4, PXR (Homo sapiens, UniProt O75469); assay: Agonist activity against PXR
T4 sequence (O75469 1-434): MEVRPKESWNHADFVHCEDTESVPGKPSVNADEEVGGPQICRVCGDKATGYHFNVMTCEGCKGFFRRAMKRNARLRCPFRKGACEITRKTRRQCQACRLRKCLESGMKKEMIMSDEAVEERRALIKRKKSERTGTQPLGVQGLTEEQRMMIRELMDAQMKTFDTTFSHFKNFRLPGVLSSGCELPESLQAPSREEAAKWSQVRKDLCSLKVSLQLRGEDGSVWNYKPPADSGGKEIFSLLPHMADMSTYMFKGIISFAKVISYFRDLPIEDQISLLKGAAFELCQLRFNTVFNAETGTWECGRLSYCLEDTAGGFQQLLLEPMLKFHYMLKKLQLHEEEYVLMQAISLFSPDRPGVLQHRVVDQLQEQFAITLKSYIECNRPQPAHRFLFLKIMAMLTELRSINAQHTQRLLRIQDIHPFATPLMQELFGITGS

[12] = 10 μM, naked oocytes (NO) cultured in vitro for 24 hours in Hx-medium
[13] = dose which leads to 50% saturation

## CC(C)=CCC[C@@H](C)[C@H]1CC=C2C3=C(CC[C@@]21C)[C@@]1(C)CC[C@H](O)C(C)(C)[C@@H]1CC3 [FF-MAS, 4,4-dimethyl-5α-cholesta-8,14,24-triene-3β-ol]
[1]; 10 μM, NO, 24 hours, indexed: control 0, FF-MAS 100
  Mean Relative Effect: 100
[1]; [12]
  Mean % GVBD: 86.1%
  Mean % PB: 28.5%
[1]; Hx + 10 μM
  % GVBD + PB: 90 ± 8%
[2]; Hx + 10 μM
  % GVBD + PB: 78 ± 9%
[3]; FIGS. 1A and 1B
  Behaviour on human LXRs (LXRα): agonist
[3]; [13]
  EC50: ~67 nM
[4]; FIGS. 1A and 1B
  Behaviour on human LXRs (LXRβ): agonist
[4]; [13]
  EC50: ~21 nM
[5]
  Behaviour on human FXRalpha: partial agonist
[6]
  Behaviour on mouse FXRbeta: partial agonist
[7]
  Transactivation of LXRα: able to transactivate LXRα
[8]
  Induction of meiosis in NO in vitro: induce meiosis

## O=C(O)Cc1cccc(OCCCN(Cc2cccc(C(F)(F)F)c2Cl)CC(c2ccccc2)c2ccccc2)c1 [90-8684, 2-(3-{3-[[2-chloro-3-(trifluoromethyl)benzyl](2,2-diphenylethyl)amino]propoxy}phenyl)acetic acid]
[1]; Hx + 5 μM
  % GVBD + PB: 45 ± 5%
[1]; Hx + 10 μM
  % GVBD + PB: 49 ± 8%
[1]; Hx + 15 μM
  % GVBD + PB: 54 ± 5%
[1]; mouse oocytes, NkO and CEO tests
  Meiosis-inducing effect in an oocyte maturation assay: dose-dependent maturation of the oocytes
[2]; Hx + 2.5 μM
  % GVBD + PB: 69 ± 3%
[2]; Hx + 5 μM
  % GVBD + PB: 71 ± 6%
[2]; Hx + 10 μM
  % GVBD + PB: 86 ± 7%
[9]
  Activity against LXRα: showed activity
[10]
  Activity against LXRβ: showed activity
[11]
  Activity against PXR: showed activity
